Results: ChEMBL document CHEMBL6078704, “Redesigning Berberines and Sanguinarines to Target Soluble Epoxide Hydrolase for Enhanced Anti-Inflammatory Efficacy” (J Med Chem, 2024)

Experiments:
[1] = system: HEK-293T; assay: Cytotoxicity against human 293T cells assessed as cell viability at 0.5 to 5 uM measured after 48 hrs by CCK-8 assay; assay type: toxicity, cell-based; conditions: dose 0.5-5 µM
[2] = system: Mus musculus; assay: Anti-inflammatory activity in carrageen-induced paw edema BALB/c mouse model assessed as inhibition of soft tissue edema and inflammation measured immediately at 0.5 mg/kg, ip measured up to 6 hrs; assay type: functional
[3] = system: HepG2; assay: Cytotoxicity against human HepG2 cells assessed as cell viability at 0.5 to 5 uM measured after 48 hrs by CCK-8 assay; assay type: toxicity, cell-based; conditions: hepg2, 48 h, dose 0.5-5 µM
[4] = target: T1, Bifunctional epoxide hydrolase 2 (Mus musculus, UniProt P34914); assay: Inhibition of male C57BL/6J mouse brain sEH assessed as quantity of 14,15-DHET level measured after 15 mins incubation by HPLC-MS analysis
T1 sequence (P34914 whole entry): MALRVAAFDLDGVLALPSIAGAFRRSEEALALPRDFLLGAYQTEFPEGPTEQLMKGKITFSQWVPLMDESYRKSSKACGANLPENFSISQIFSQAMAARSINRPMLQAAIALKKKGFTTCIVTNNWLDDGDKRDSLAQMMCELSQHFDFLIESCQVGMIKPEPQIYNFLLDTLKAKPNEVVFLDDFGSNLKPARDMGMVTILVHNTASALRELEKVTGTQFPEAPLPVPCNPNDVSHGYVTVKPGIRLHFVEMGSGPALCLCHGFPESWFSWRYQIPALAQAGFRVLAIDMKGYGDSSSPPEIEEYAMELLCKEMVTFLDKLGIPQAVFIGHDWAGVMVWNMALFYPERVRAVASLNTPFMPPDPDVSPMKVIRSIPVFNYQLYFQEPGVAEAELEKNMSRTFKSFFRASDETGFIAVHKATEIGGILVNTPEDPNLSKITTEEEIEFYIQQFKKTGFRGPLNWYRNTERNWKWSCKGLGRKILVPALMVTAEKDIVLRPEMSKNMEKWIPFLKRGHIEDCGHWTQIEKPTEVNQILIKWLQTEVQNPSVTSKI

[5] = system: Mus musculus; assay: Antiinflammatory activity against cerulein-induced acute pancreatitis in CD1 mouse assessed as increase in plasma 8,9-EET/DHET ratio at 20 mg/kg, ip pretreated with cerulein followed by compound injection on 30 and 150 mins and measured 6 hrs post cerulein treatment relative to model group; assay type: functional; conditions: time 30-360 min
[6] = system: Mus musculus; assay: Antiinflammatory activity against cerulein-induced acute pancreatitis in CD1 mouse assessed as increase in plasma 14,15-EET/DHET ratio at 20 mg/kg, ip pretreated with cerulein followed by compound injection on 30 and 150 mins and measured 6 hrs post cerulein treatment relative to model group; assay type: functional; conditions: time 30-360 min
[7] = system: Mus musculus; assay: Antiinflammatory activity against cerulein-induced acute pancreatitis in CD1 mouse assessed as increase in pancreatic 14,15-EET/DHET ratio at 20 mg/kg, ip pretreated with cerulein followed by compound injection on 30 and 150 mins and measured 6 hrs post cerulein treatment relative to model group; assay type: functional; conditions: time 30-360 min
[8] = system: Staphylococcus aureus; assay: Antimicrobial activity against methicillin-resistant Staphylococcus aureus 19B120 by microbroth dilution method; assay type: functional
[9] = system: Staphylococcus aureus; assay: Antimicrobial activity against Staphylococcus aureus ATCC 29213 by microbroth dilution method; assay type: functional
[10] = system: Mus musculus; assay: Antiinflammatory activity against cerulein-induced acute pancreatitis in CD1 mouse assessed as increase in pancreatic 8,9-EET/DHET ratio at 20 mg/kg, ip pretreated with cerulein followed by compound injection on 30 and 150 mins and measured 6 hrs post cerulein treatment relative to model group; assay type: functional; conditions: time 30-360 min
[11] = system: Mus musculus; assay: Anti-inflammatory activity in carrageen-induced paw edema BALB/c mouse model assessed as inhibition of soft tissue edema and inflammation measured immediately at 20 mg/kg, po measured at 1 to 4 hrs; assay type: functional; conditions: time 1-4 hrs

Row | SMILES | IC50 [4] [nM] | Activity [1] | Activity [3] | further results
1 | COc1cc2c(cc1OC)CN1CCc3cc(NC(=O)NCc4ccc(OC(F)(F)F)cc4)ccc3[C@H]1C2 |  | Non-toxic | Non-toxic | fold change (FC) [5]: 2; fold change (FC) [6]: 3.3; fold change (FC) [7]: 18.5; MIC [8]: > 64 µg/mL; MIC [9]: > 64 µg/mL; fold change (FC) [10]: 6.7
2 | CCC(=O)N1CCC(NC(=O)Nc2ccc(OC(F)(F)F)cc2)CC1 |  |  |  | inhibition in vivo at 0.5 mg/kg [2]: 15%; inhibition in vivo at 20 mg/kg [11]: 25%
3 | COc1cc2c(cc1OC)C1Cc3ccc(NC(=O)Nc4ccc(OC(F)(F)F)cc4)cc3CN1CC2 (stereo unspecified) | 40.7 |  |  | 
4 | COc1cc2c(cc1OC)-c1cc3ccc(NC(=O)NCc4ccc(OC(F)(F)F)cc4)cc3c[n+]1CC2 | 210 |  |  | MIC [8]: 8 µg/mL; MIC [9]: 8 µg/mL
5 | CCC(=O)N1CCC(NC(=O)Nc2ccc3c(c2)CN2CCc4cc5c(cc4C2C3)OCO5)CC1 (stereo unspecified) | 97.1 |  |  | 
6 | COc1cc2c(cc1OC)CN1CCc3cc(NC(=O)NCc4ccc(OC(F)(F)F)cc4)ccc3[C@@H]1C2 |  |  |  | inhibition in vivo at 20 mg/kg [11]: 27%
7 | COc1cc2c(cc1OC)C1Cc3ccc(NC(=O)NCC4COC4)cc3CN1CC2 (stereo unspecified) | 2650 |  |  | 
8 | COc1cc2c(cc1OC)CN1CCc3cc(NC(=O)NCC4CCOCC4)ccc3C1C2 (stereo unspecified) | 21.2 |  |  | 
9 | COc1ccc2cc3[n+](cc2c1OC)CCc1cc2c(cc1-3)OCO2 [BERBERINE] |  |  |  | MIC [8]: 32 µg/mL; MIC [9]: 64 µg/mL
10 | COc1cc2cc3[n+](cc2cc1OC)CCc1cc(NC(=O)NCc2ccc(OC(F)(F)F)cc2)ccc1-3.[Cl-] | 39.1 |  |  | MIC [8]: 4 µg/mL; MIC [9]: 8 µg/mL
11 | COc1cc2c(cc1OC)-c1cc3ccc(NC(=O)NCc4ccc(OC(F)(F)F)cc4)cc3c(=O)n1CC2 | 37.6 |  |  | 
12 | CCC(=O)N1CCC(NC(=O)Nc2ccc3c(c2)CN2CCc4cc(OC)c(OC)cc4C2C3)CC1 (stereo unspecified) | 143 |  |  | 
13 | CCC(=O)N1CCC(CNC(=O)Nc2ccc3c(c2)CCN2Cc4cc(OC)c(OC)cc4CC32)CC1 (stereo unspecified) | 42.7 |  |  | 
14 | COc1cc2c(cc1OC)C1Cc3ccc(NC(=O)NC[C@@H]4CCCO4)cc3CN1CC2 (stereo partly specified) | 54.3 |  |  | 

The next lines start with results.

Row | IC50 [4] [nM] | SMILES | Activity [1] | Activity [3] | further results
15 | 2.55 | COc1cc2c(cc1OC)C1Cc3ccc(NC(=O)NCc4cccc(OC(F)(F)F)c4)cc3CN1CC2 (stereo unspecified) | Non-toxic | Non-toxic | inhibition [2]: Active; Reduced Inhibition In Later Stages Of Experiment
16 | 1.33 | COc1cc2c(cc1OC)C1Cc3ccc(NC(=O)NCc4ccc(OC(F)F)cc4)cc3CN1CC2 (stereo unspecified) | Non-toxic | Non-toxic | 
17 | 5.56 | CN1Cc2cc(NC(=O)NCC3CCOCC3)ccc2-c2ccc3ccccc3c21 | Non-toxic | Non-toxic | 
18 | 0.73 | COc1cc2c(cc1OC)CN1CCc3cc(NC(=O)NCc4ccc(OC(F)F)cc4)ccc3C1C2 (stereo unspecified) | Non-toxic | Non-toxic | 
19 | 18.8 | CCC(=O)N1CCC(CNC(=O)Nc2ccc3c(c2)CN2CCc4cc(OC)c(OC)cc4C2C3)CC1 (stereo unspecified) |  |  | 
20 | 12.1 | CN1Cc2cc(NC(=O)NCc3ccc(OC(F)(F)F)cc3)ccc2-c2ccc3ccccc3c21 |  |  | 
21 | 15.9 | O=C(NCC1CCOCC1)Nc1ccc2c(c1)CN1CCc3cc4c(cc3C1C2)OCO4 (stereo unspecified) |  |  | 
22 | 6.13 | COc1cc2c(cc1OC)C1Cc3ccc(NC(=O)NCc4ccc(S(C)(=O)=O)cc4)cc3CN1CC2 (stereo unspecified) | Non-toxic | Non-toxic | inhibition in vivo at 0.5 mg/kg [2]: 25%
23 | 1.49 | O=C(NCc1ccc(OC(F)(F)F)cc1)Nc1ccc2c(c1)CN1CCc3cc4c(cc3C1C2)OCO4 (stereo unspecified) |  |  | 
24 | 4.98 | COc1cc2c(cc1OC)C1Cc3ccc(NC(=O)NCC4CCCCC4)cc3CN1CC2 (stereo unspecified) |  |  | 
25 | 9.98 | CC(C)CNC(=O)Nc1ccc2c(c1)CN1CCc3cc4c(cc3C1C2)OCO4 (stereo unspecified) |  |  | 
26 | 0.86 | COc1cc2c(cc1OC)C1Cc3ccc(NC(=O)NCc4ccc(OC(F)(F)F)cc4)cc3CN1CC2 (stereo unspecified) | Non-toxic | Non-toxic | inhibition in vivo at 0.5 mg/kg [2]: 35%
27 | 17.3 | COc1cc2c(cc1OC)C1Cc3ccc(NC(=O)NCc4ccc(S(N)(=O)=O)cc4)cc3CN1CC2 (stereo unspecified) |  |  | 
28 | 6.94 | CCC(=O)N1CCC(CNC(=O)Nc2ccc3c(c2)CN(C)c2c-3ccc3ccccc23)CC1 | Non-toxic | Non-toxic | 
29 | 15.6 | CCC(=O)N1CCC(CNC(=O)Nc2ccc3c(c2)CN2CCc4cc5c(cc4C2C3)OCO5)CC1 (stereo unspecified) | Non-toxic | Non-toxic | 
30 | 19.4 | COc1cc2c(cc1OC)C1Cc3ccc(NC(=O)NCC4CCOCC4)cc3CN1CC2 (stereo unspecified) |  |  | 
31 | 0.67 | O=C(NCc1ccc(OC(F)F)cc1)Nc1ccc2c(c1)CN1CCc3cc4c(cc3C1C2)OCO4 (stereo unspecified) | Non-toxic | Non-toxic | 
32 | 2.83 | COc1cc2c(cc1OC)CN1CCc3cc(NC(=O)NCc4ccc(OC(F)(F)F)cc4)ccc3C1C2 (stereo unspecified) | Non-toxic | Non-toxic | inhibition in vivo at 0.5 mg/kg [2]: 35%
33 | 2.34 | O=C(NCc1cccc(OC(F)(F)F)c1)Nc1ccc2c(c1)CN1CCc3cc4c(cc3C1C2)OCO4 (stereo unspecified) |  |  | 
34 | 20.5 | CC(C)CNC(=O)Nc1ccc2c(c1)CN(C)c1c-2ccc2ccccc12 |  |  | 
